In patent US11814367B2, “Inhibitors of glycogen synthase 1 (GYS1) and methods of use thereof” (Maze Therapeutics, Inc., priority 2021, dated 2023):

Legend:
[1] = target: hGYS2 enzyme (recombinant hGYS2/GN1 protein) (Homo sapiens (Human), UniProt P54840); assay: GYS2 coupled enzyme assay (PK/LDH); assay type: biochemical; conditions: geometric mean of at least 2 assay runs on separate days, read-out: Avg_IC50
Outline: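 Continuous PK/LDH-coupled readout of NADH loss at 340 nm over 10 min, with 200 nM hGYS2/GN1 and 2 mM each of UDP-glucose, glucose-6-phosphate and PEP, in 50 mM Tris pH 7.5 with 0.2% glycogen and 2.5% DMSO. Slopes were normalized to controls and IC50s fit to a Hill curve from duplicates.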

[2] = target: hGYS1 enzyme (recombinant hGYS1/GN1 protein) (Homo sapiens (Human), UniProt P13807); assay: GYS1 coupled enzyme assay (PK/LDH); assay type: biochemical; conditions: hGYS1/GN1 50 nM, UDP-Glucose 0.8 mM, G6P 1 mM; geometric mean of at least 2 runs
hGYS1 enzyme (recombinant hGYS1/GN1 protein), sequence (P13807 whole entry): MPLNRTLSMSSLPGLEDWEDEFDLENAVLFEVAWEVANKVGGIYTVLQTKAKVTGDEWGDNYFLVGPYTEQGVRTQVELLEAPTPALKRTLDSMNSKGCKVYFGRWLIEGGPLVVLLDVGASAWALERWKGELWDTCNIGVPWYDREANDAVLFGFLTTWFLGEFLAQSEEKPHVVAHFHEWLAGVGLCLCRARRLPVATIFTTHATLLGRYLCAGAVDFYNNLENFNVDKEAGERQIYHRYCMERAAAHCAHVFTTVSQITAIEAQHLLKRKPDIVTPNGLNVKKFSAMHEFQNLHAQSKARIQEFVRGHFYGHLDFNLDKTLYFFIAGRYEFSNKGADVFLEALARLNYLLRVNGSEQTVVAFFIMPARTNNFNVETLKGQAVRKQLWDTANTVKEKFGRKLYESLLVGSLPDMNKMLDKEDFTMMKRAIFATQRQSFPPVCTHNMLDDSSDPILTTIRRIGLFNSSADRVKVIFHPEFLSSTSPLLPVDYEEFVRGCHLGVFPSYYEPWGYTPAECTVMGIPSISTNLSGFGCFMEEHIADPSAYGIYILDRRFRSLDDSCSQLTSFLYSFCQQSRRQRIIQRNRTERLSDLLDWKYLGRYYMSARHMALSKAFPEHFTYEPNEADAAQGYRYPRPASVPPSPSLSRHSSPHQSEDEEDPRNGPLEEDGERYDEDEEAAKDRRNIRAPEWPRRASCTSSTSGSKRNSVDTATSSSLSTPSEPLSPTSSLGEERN
hGYS1 enzyme (recombinant hGYS1/GN1 protein), sequence (P46976 whole entry partner): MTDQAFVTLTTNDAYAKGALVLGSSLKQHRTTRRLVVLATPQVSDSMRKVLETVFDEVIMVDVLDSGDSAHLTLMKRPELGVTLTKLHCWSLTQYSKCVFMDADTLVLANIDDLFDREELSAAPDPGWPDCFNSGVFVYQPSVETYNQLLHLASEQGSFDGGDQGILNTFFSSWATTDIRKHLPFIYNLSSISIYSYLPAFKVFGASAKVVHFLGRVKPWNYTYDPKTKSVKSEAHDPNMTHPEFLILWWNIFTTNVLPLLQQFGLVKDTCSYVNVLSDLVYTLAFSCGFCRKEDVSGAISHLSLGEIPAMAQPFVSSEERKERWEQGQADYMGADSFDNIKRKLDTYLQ

[3] = tested on: hGYS1 enzyme / glycogen synthesis in HeLa cells; assay: GYS1 cell based assay (glycogen synthesis, Glucose-glo); parameters: species or system human; conditions: Homo sapiens, HeLa, 24 h, 24 h incubation, 20 mM glucose, geometric mean of at least 2 runs
Outline: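 HeLa cells starved 24 h in medium containing only 1× Glutamax were plated onto compound in medium with 20 mM glucose (1% DMSO final) for 24 h, 37 °C, 5% CO2. Acid lysates were Tris-quenched, glucoamylase-digested (pH 5.3, 1 h, 37 °C) and read by Glucose-glo luminescence. IC50 came from Hill fits, as geometric mean of ≥2 runs.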

hGYS2 enzyme (recombinant hGYS2/GN1 protein), sequence (P54840 whole entry): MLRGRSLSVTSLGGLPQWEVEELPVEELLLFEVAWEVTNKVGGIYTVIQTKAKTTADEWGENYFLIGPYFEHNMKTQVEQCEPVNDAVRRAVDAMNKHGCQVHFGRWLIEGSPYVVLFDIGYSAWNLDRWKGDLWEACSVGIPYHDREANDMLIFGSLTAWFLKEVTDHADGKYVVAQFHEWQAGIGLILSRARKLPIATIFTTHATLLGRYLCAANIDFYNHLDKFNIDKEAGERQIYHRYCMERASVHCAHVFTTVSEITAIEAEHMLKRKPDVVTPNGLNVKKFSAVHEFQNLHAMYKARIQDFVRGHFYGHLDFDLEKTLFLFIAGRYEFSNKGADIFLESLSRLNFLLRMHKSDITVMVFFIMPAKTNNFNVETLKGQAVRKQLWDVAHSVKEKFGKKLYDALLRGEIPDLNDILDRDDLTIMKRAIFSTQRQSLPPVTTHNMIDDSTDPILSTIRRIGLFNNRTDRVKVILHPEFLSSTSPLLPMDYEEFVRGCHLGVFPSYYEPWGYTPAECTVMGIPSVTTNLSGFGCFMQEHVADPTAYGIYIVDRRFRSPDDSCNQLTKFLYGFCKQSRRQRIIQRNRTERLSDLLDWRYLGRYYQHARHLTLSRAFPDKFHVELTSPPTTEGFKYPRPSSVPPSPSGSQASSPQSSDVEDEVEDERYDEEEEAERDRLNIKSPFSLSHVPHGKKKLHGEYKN
hGYS2 enzyme (recombinant hGYS2/GN1 protein), sequence (P46976 whole entry partner): as the sequence (P46976 whole entry partner) above

SMILES	IC50 [1]	IC50 [2]	IC50 [3]
Cn1nc(CC(=O)N2C[C@H](F)C[C@H]2C(=O)N[C@@H](c2ccccc2)c2ccc(C3CC3)c(F)c2)c2ccccc21 [Compound 459, (2S,4R)-N-[(S)-(4-cyclopropyl-3-fluorophenyl)(phenyl)methyl]-4-fluoro-1-[2-(1-methyl-1H-indazol-3-yl)acetyl]pyrrolidine-2-carboxamide]	> 100000 nM	28 nM	750 nM
CC(C)c1ccc([C@@H](NC(=O)[C@@H]2C[C@@H](F)CN2C(=O)[C@@H](C)NC(=O)N(C)C)c2ccccc2)nc1F [Compound 406, (2S,4R)-1-[(2R)-2-[(dimethylcarbamoyl)amino]propanoyl]-4-fluoro-N-[(S)-[6-fluoro-5-(propan-2-yl)pyridin-2-yl](phenyl)methyl] pyrrolidine-2-carboxamide]	> 100000 nM	41 nM	760 nM
O=C(N[C@@H](c1ccccc1)c1ccc(C2CC2)c(F)n1)[C@@H]1C[C@@H](F)CN1C(=O)Cn1ncc(N2CC(F)(F)C2)n1 [Compound 318, (2S,4R)-N-[(S)-(5-cyclopropyl-6-fluoropyridin-2-yl)(phenyl)methyl]-1-{2-[4-(3,3-difluoroazetidin-1-yl)-2H-1,2,3-triazol-2-yl]acetyl}-4-fluoropyrrolidine-2-carboxamide]	> 100000 nM	20 nM	580 nM
O=C(N[C@@H](c1ccccc1)c1ccc(C2CC2)c(F)n1)[C@@H]1C[C@@H](F)CN1C(=O)Cc1ccc[nH]c1=O [Compound 731, (2S,4R)-N-[(S)-(5-cyclopropyl-6-fluoropyridin-2-yl)(phenyl)methyl]-4-fluoro-1-[2-(2-oxo-1,2-dihydropyridin-3-yl)acetyl]pyrrolidine-2-carboxamide]	> 100000 nM	66 nM	1620 nM
Cc1cnc(CC(=O)N2C[C@H](F)C[C@H]2C(=O)N[C@@H](c2ccccc2)c2ccc(C3CC(F)(F)C3)cn2)o1 [Compound 536, (2S,4R)-N-[(S)-[5-(3,3-difluorocyclobutyl)pyridin-2-yl](phenyl)methyl]-4-fluoro-1-[2-(5-methyl-1,3-oxazol-2-yl)acetyl]pyrrolidine-2-carboxamide]	> 100000 nM	24 nM	350 nM
Cn1nc(CC(=O)N2C[C@H](F)C[C@H]2C(=O)N[C@@H](c2ccccc2)c2ccc(C3CC3)c(F)n2)oc1=O [Compound 306, (2S,4R)-N-[(S)-(5-cyclopropyl-6-fluoropyridin-2-yl)(phenyl)methyl]-4-fluoro-1-[2-(4-methyl-5-oxo-4,5-dihydro-1,3,4-oxadiazol-2-yl)acetyl]pyrrolidine-2-carboxamide]	> 100000 nM	78 nM	810 nM
CC(C)c1ccc([C@@H](NC(=O)[C@@H]2C[C@@H](F)CN2C(=O)Cn2cc(C(F)(F)F)cn2)c2ccccc2)nc1F [Compound 788]	> 100000 nM	20 nM	340 nM
O=C(N[C@@H](c1ccccc1)c1ccc(C2CC(F)(F)C2)c(F)n1)[C@@H]1C[C@@H](F)CN1C(=O)Cc1cnn[nH]1 [Compound 508, (2S,4R)-N-[(S)-[5-(3,3-difluorocyclobutyl)-6-fluoropyridin-2-yl](phenyl)methyl]-4-fluoro-1-[2-(1H-1,2,3-triazol-5-yl)acetyl]pyrrolidine-2-carboxamide]	> 100000 nM	21 nM	310 nM
CC(C)c1ccc([C@@H](NC(=O)[C@@H]2C[C@@H](F)CN2C(=O)Cn2nncc2CN)c2ccccc2)cc1 [Compound 240, (2S,4R)-1-{2-[5-(aminomethyl)-1H-1,2,3-triazol-1-yl]acetyl}-4-fluoro-N-[(S)-phenyl[4-(propan-2-yl)phenyl]methyl]pyrrolidine-2-carboxamide]	> 100000 nM	60 nM	2090 nM

Further lines, results first:

IC50 [1]	IC50 [2]	IC50 [3]	SMILES
> 100000 nM	62 nM	3630 nM	CC(C)c1ccc([C@@H](NC(=O)[C@@H]2C[C@@H](F)CN2C(=O)CNC(N)=O)c2ccccc2)nc1 [Compound 262, (2S,4R)-1-[2-(carbamoylamino)acetyl]-4-fluoro-N-[(S)-phenyl[5-(propan-2-yl)pyridin-2-yl]methyl]pyrrolidine-2-carboxamide]
> 100000 nM	7 nM	90 nM	Cc1cn(CC(=O)N2C[C@H](F)C[C@H]2C(=O)N[C@@H](c2ccccc2)c2ccc(C(C)C)c(F)c2)c(=O)n(C)c1=O [Compound 353, (2S,4R)-1-[2-(3,5-dimethyl-2,4-dioxo-1,2,3,4-tetrahydropyrimidin-1-yl)acetyl]-4-fluoro-N-[(S)-[3-fluoro-4-(propan-2-yl)phenyl](phenyl)methyl] pyrrolidine-2-carboxamide]
> 100000 nM	8 nM	130 nM	CC(C)c1ccc([C@@H](NC(=O)[C@@H]2C[C@@H](F)CN2C(=O)CNC(=O)N2CC(F)(F)C2)c2ccccc2)nc1F [Compound 410, (2S,4R)-1-{2-[(3,3-difluoroazetidine-1-carbonyl)amino]acetyl}-4-fluoro-N-[(S)-[6-fluoro-5-(propan-2-yl)pyridin-2-yl](phenyl)methyl]pyrrolidine-2-carboxamide]
> 100000 nM	16 nM	360 nM	CN(C)C(=O)NCC(=O)N1C[C@H](F)C[C@H]1C(=O)N[C@@H](c1ccccc1)c1ccc(C2CC(F)(F)C2)c(F)c1 [Compound 547, (2S,4R)-N-[(S)-[4-(3,3-difluorocyclobutyl)-3-fluorophenyl](phenyl)methyl]-1-{2-[(dimethylcarbamoyl)amino]acetyl}-4-fluoropyrrolidine-2-carboxamide]
> 82300 nM	5 nM	150 nM	CC(C)c1ccc([C@@H](NC(=O)[C@@H]2C[C@@H](F)CN2C(=O)Cc2[nH]nnc2C(F)(F)F)c2ccccc2)cc1F [Compound 368, (2S,4R)-4-fluoro-N-[(S)-[3-fluoro-4-(propan-2-yl)phenyl](phenyl)methyl]-1-{2-[4-(trifluoromethyl)-1H-1,2,3-triazol-5-yl]acetyl}pyrrolidine-2-carboxamide]
> 100000 nM	225 nM	1650 nM	Cc1nc(C(NC(=O)[C@@H]2C[C@@H](F)CN2C(=O)Cc2nnc(C(F)F)o2)c2ccccc2)ccc1C(C)C (single isomer, unassigned) [Compound 609, (2S,4R)-1-{2-[5-(difluoromethyl)-1,3,4-oxadiazol-2-yl]acetyl}-4-fluoro-N-[(S) or (R)-[6-methyl-5-(propan-2-yl)pyridin-2-yl](phenyl)methyl] pyrrolidine-2-carboxamide]
> 100000 nM	31 nM	400 nM	CC[C@@H]1CN(C(C)=O)C[C@@H]1C(=O)N1C[C@H](F)C[C@H]1C(=O)N[C@@H](c1ccccc1)c1ccc(C(C)C)cc1 [Compound 179, (2S,4R)-1-[(3R,4S)-1-acetyl-4-ethylpyrrolidine-3-carbonyl]-4-fluoro-N-[(S)-phenyl[4-(propan-2-yl)phenyl]methyl]pyrrolidine-2-carboxamide]
> 100000 nM	22 nM	540 nM	Cc1nccc(NCC(=O)N2C[C@H](F)C[C@H]2C(=O)N[C@@H](c2ccccc2)c2ccc(C3CC3)c(F)c2)n1 [Compound 472, (2S,4R)-N-[(S)-(4-cyclopropyl-3-fluorophenyl)(phenyl)methyl]-4-fluoro-1-{2-[(2-methylpyrimidin-4-yl)amino]acetyl} pyrrolidine-2-carboxamide]
> 100000 nM	39 nM	900 nM	Cc1nccc(N(C)CC(=O)N2C[C@H](F)C[C@H]2C(=O)N[C@@H](c2ccccc2)c2ccc(C3CC3)c(F)c2)n1 [Compound 476, (2S,4R)-N-[(S)-(4-cyclopropyl-3-fluorophenyl)(phenyl)methyl]-4-fluoro-1-{2-[methyl(2-methylpyrimidin-4-yl)amino]acetyl} pyrrolidine-2-carboxamide]
> 100000 nM	68 nM	1410 nM	O=C(N[C@@H](c1ccccc1)c1ccc(C2CC2)c(F)c1)[C@@H]1C[C@@H](F)CN1C(=O)Cc1cccn2c(=O)[nH]nc12 [Compound 482, (2S,4R)-N-[(S)-(4-cyclopropyl-3-fluorophenyl)(phenyl)methyl]-4-fluoro-1-(2-{3-oxo-2H,3H-[1,2,4]triazolo[4,3-a]pyridin-8-yl}acetyl) pyrrolidine-2-carboxamide]
> 100000 nM	17 nM	390 nM	CC(C)c1ccc([C@@H](NC(=O)[C@@H]2C[C@@H](F)CN2C(=O)Cc2cnn[nH]2)c2ccccc2)nc1F [Compound 385, (2S,4R)-1-(2-(1H-1,2,3-triazol-5-yl)acetyl)-4-fluoro-N—((S)-(6-fluoro-5-isopropylpyridin-2-yl)(phenyl)methyl)pyrrolidine-2-carboxamide]
> 100000 nM	25 nM	320 nM	CC(C)c1c(F)cc(C(NC(=O)[C@@H]2C[C@@H](F)CN2C(=O)Cn2ccnn2)c2ccccc2)cc1F (single isomer, unassigned) [Compound 668, (2S,4R)-N-[(S) or (R)-[3,5-difluoro-4-(propan-2-yl)phenyl](phenyl)methyl]-4-fluoro-1-[2-(1H-1,2,3-triazol-1-yl)acetyl]pyrrolidine-2-carboxamide]
